TGI and GI50 data for 40 compounds are collected here from PubChem BioAssay (NCI).

Where “and” joins values, the source holds several entries; their conditions need not be identical. Equal values may be shown once.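 In this assay, cells in 96-well plates receive the compound at five concentrations for 48 hours. Endpoints are linearly interpolated between the surrounding concentrations. The concentration for 50% growth inhibition is given as GI50. TGI denotes the concentration required for complete inhibition of growth.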 Where only a bound is given, the exact number is not on record here.

The subject of the assay is MDA-MB-468 breast. Put plainly: growth of human tumour cells (NCI), 48 h.
`CNc1ncc2cc(-c3cc(NC(=O)NCCC(C)(C)C)c(F)cc3C)c(C)nc2n1` showed a TGI greater than 67.1 µM.

As for `COCCOC1=C(Cl)C(=O)c2c(O)ccc(O)c2C1=O`, the GI50 was 0.899 µM and the TGI amounted to 2.45 µM.

On to `O=C(CSc1ncc(-c2ccccc2)n1-c1ccccc1)Nc1ccc(-c2nc3ccccc3s2)cc1`, for which the GI50 is 1.35 µM and the TGI is 4.96 µM.

For the compound `Cc1cc(N)cc(C)c1-c1c(Br)cc(N)cc1Br`, the GI50 is 2.09 µM and the TGI was 6.58 µM.

On to `COc1cc(Cn2c(SCC(=O)Nc3ccc(Cl)cc3)nc3ccccc3c2=O)cc(OC)c1OC`, for which the GI50 was 7.22 µM and the TGI turned out to be 42.4 µM.

With `O=C(O)c1cn(C2CC2)c2cc(N3CCN(Cc4ccc5ccccc5c4O)CC3)c(F)cc2c1=O`, the GI50 is 4.55 µM and the TGI was greater than 100 µM.

For the compound `COc1cc(-c2nn(-c3cccc(NC(=O)CCN4CCN(C)CC4)c3)cc2-c2ccncc2)ccc1Cl`, the GI50 was 0.997 µM and the TGI worked out at 2.85 µM.

Take `COc1ccc2c(c1)N(CCO)C1=C(C(=O)OC1)C2c1ccc(OC)c(OC)c1` (centres undefined): the GI50 is 1.74 µM and the TGI amounted to 7.57 µM.

Turning to `COC(=O)c1ccc2c(C(=Nc3ccc(N(C)C(=O)CN4CCN(C)CC4)cc3)c3ccccc3)c(O)[nH]c2c1`, the GI50 was 2.13 µM and the TGI was 9.78 µM.

For `CCN1C(=O)N(CC)C2C1NN=c1s/c(=C\c3ccc(OC)cc3)c(=O)n12` (centres undefined), the GI50 is 0.13 µM and the TGI is greater than 60.8 µM.

For `CC1(O)COCCCCOc2c(CN)cccc2NC(=O)c2nc(cnc2N)-c2ccc(cc2)S(=O)(=O)C(C)(C)C1` (centres undefined), the GI50 was 0.939 µM and the TGI was 2.52 µM.

As for `O=C1NC(=O)C(c2c[nH]c3ccccc23)=C1c1ccccc1`, the GI50 was greater than 25 µM and the TGI is greater than 25 µM.

Consider `CN1CCN(c2ccc(Nc3ncc4cc5n(c4n3)C3(CCCCC3)CNC5=O)nc2)CC1`, for which the GI50 is 10.9 µM and the TGI is 36 µM.

Turning to `Cc1cc(C#Cc2ccccc2)ccc1-n1c(/C=C/c2cc(O)ccc2O)nc2ccccc2c1=O`, the GI50 was 1.61 µM and the TGI worked out at 4.19 µM.

Regarding `CNCCNc1nc2ccccc2c2c(=O)c3cccc(C)c3sc12`, the GI50 was 0.892 µM and the TGI turned out to be 1.94 µM.

As to `COC(=O)[C@]12CC[C@@H](C)[C@H](C)[C@@H]1C1=CC[C@@H]3[C@@]4(C)CC(=O)[C@H](O)[C@@](C)(CO)[C@@H]4C(=O)C[C@@]3(C)[C@]1(C)CC2`, the GI50 was 15.2 µM and the TGI stood at 32.2 µM.

Regarding `Cn1cc(C2=C(c3c(S(C)=O)n(C)c4ccccc34)C(=O)NC2=O)c2ccccc21` (centres undefined), the GI50 is 6.71 µM and the TGI was greater than 25 µM.

Turning to `O=C1NC(=N[C@H](CO)c2ccccc2)S/C1=C\c1ccc2ncccc2c1`, the GI50 is 2.06 µM and the TGI is 8.97 µM.

Take `CCN(CCO)CCCOc1ccc2c(Nc3cc(CC(=O)Nc4cccc(F)c4)[nH]n3)ncnc2c1`: the GI50 is 1.04 µM and 0.109 µM; the TGI amounted to 18.9 µM.

`O=C(Nc1ccccc1)Nc1ccc(Cl)c(Cl)c1`: the GI50 is 2.83 µM and the TGI is 13.9 µM.

Take `N#Cc1ccc(/C=C/C(=O)c2ccccc2)cc1`: the GI50 is 5.95 µM and 1.89 µM; the TGI was 21.1 µM and 5.44 µM.

Turning to `OCc1ccc(N(Cc2ccc(F)cc2)CC2CCC2)cc1Cl`, the GI50 is 0.184 µM and the TGI was 0.61 µM.

In the case of `COc1ccc(-c2nc3sccn3c2-c2ccnc(NCCCNS(=O)(=O)c3ccc(F)cc3)n2)cc1`, the GI50 was 1.55 µM and the TGI was 6.48 µM.

As to `CS(=O)(=O)N1CCc2c(-c3cnc(N)nc3)nc(N3CCOCC3)nc21`, the GI50 is 0.305 µM and 0.264 µM; the TGI is 3 µM and 2.3 µM.

As for `C#Cc1ccc(-n2c(/C=C/c3ccc4ccccc4c3)nc3ncccc3c2=O)cc1`, the GI50 was 0.963 µM and the TGI is 7.77 µM.

For `Oc1cccc(-c2nc(-c3ccccc3)[nH]c2-c2ccncc2)c1`, the GI50 was 2.08 µM and the TGI amounted to 11.4 µM.

`CCCCNNC(=O)c1ccc(-c2cccc(F)c2F)cc1`: the GI50 is 1.71 µM and the TGI turned out to be 6.06 µM.

Take `N=C1/C(=C2\Nc3ccccc3S2)CC(=O)N1c1ccc(SC(F)F)cc1`: the GI50 is greater than 100 µM and the TGI is greater than 100 µM.

For the compound `Cc1[nH]n(-c2cccc(Cl)c2)c(=O)c1/C=C1\C=c2ccccc2=CC1=O`, the GI50 is 17.6 µM and the TGI was found to be 74.7 µM.

For the compound `O=C1/C(=C/c2ccccc2[N+](=O)[O-])COc2ccc(O)c(O)c21`, the GI50 is 0.608 µM and the TGI is 2.94 µM.

In the case of `Fc1ccc(-c2c(-c3ccncc3)[nH]c3nccnc23)cc1`, the GI50 is 4.48 µM and the TGI is greater than 21.5 µM.

For the compound `CCCCOc1ccc(S(=O)(=O)N2CCN(c3nc(C)cc(N4CCOCC4)n3)CC2)cc1`, the GI50 is 2.69 µM and the TGI was greater than 100 µM.

For `O=c1c2cc(-c3ccc(F)cc3F)ccc2n(O)c(=O)n1-c1cccc(C(F)(F)F)c1`, the GI50 was 1.68 µM and the TGI is 5.4 µM.

In the case of `FC(F)(F)c1ccc(NCc2nc3ccccc3[nH]2)cc1`, the GI50 was 16.7 µM and the TGI was determined as 55.6 µM.

Consider `CNCCN(C)Cc1cn[nH]c1-c1ccc(OC2CC(OCCC3CCOCC3)C2)cc1` (centres undefined), for which the GI50 is 33.7 µM and the TGI was greater than 100 µM.

Turning to `CCCc1n(Cc2ccc3ccccc3n2)cc[n+]1Cc1ccc2ccccc2n1`, the GI50 was 0.232 µM and the TGI was determined as 1.55 µM.

On to `N[C@@H](CSSC[C@H](N)C(=O)N1CCn2cc(-c3ccccc3)nc2[C@@H]1CC1CCCCC1)C(=O)N1CCn2cc(-c3ccccc3)nc2[C@@H]1CC1CCCCC1`, for which the GI50 is 1.07 µM and the TGI came to 2.53 µM.

For `COc1ccc2nc3cc(Cl)ccc3c(Nc3cc(C(C)C)c(O)cc3C)c2c1`, the GI50 was 1.56 µM and the TGI amounted to 4.6 µM.

For the compound `CC(C)[C@H](C(=O)O[C@@H]1/C=C/C(=O)O[C@@H](C)CCC/C=C/[C@@H]2C[C@H](O)C[C@H]21)N(C)C`, the GI50 is 1.61 µM and the TGI is 4.62 µM.

With `COc1ccc(/C=C2/CN(CCC#N)C/C(=C\c3ccc(OC)cc3)C2=O)cc1`, the GI50 was 1.39 µM and the TGI was determined as 4.95 µM.
